Results as given in the METLIN SMRT retention time set (Domingo-Almenara et al. 2019).

Test: gradient 5% acetonitrile 3 min, to 50% in 2 min, to 85% in 15 min, held 3 min, 100 µL/min
Settings: column: Zorbax Extend-C18 2.1 x 50 mm; eluents: water / acetonitrile, 0.1% formic acid
Outline: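 Standards, all pure, were combined into mixtures of ~100 molecules and run at 100 μL/min on a Zorbax Extend-C18 column (2.1 × 50 mm, 1.8 μm) with water and acetonitrile, each containing 0.1% formic acid. A coupled quadrupole time-of-flight mass spectrometer operated in positive and negative ionization mode. Retention time values come from computationally picked adduct peaks, each inspected manually.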

SMILES	RP-LC retention time [s]
O=C(COc1ccc(F)cc1)NCC1(c2cccs2)CC1	882
CCOC(=O)c1c(S(=O)(=O)N2CCC(C(=O)NCc3ccc(F)cc3)CC2)c(C)n(C)c1C	808
COc1ccc(-c2csc3c(=O)n(CC(=O)NC4CCCC4)cnc23)cc1	832
COCc1cc2nn(CC(=O)NC3CCCCC3)c(=O)n2c(-c2ccccc2)n1	785
O=C(NCc1nnc2n1CCCC2)c1ccc2c(c1)OCO2	1260
Cc1nn(-c2nc(-c3ccc(F)cc3)cs2)c(C)c1CC(=O)Nc1ccc(F)cc1	1150
CCN1C(=O)C(C)(C(=O)Nc2ccc(C)cc2C)Oc2cccnc21 (centres undefined)	744
CCC(=O)c1cn(CC(=O)NC(C)c2ccc3c(c2)OCCCO3)c2ccccc12 (centres undefined)	848
COCC(=O)NC1CCC12CCN(S(=O)(=O)c1c(C)noc1C)CC2 (centres undefined)	740
CN(CCc1noc(-c2ccc(C(=O)N(C)Cc3ccco3)cc2)n1)C(=O)c1ccccc1	817
Cc1cccc(N2CCN(c3ccc4nnc(CCc5nc(-c6ccccc6C)no5)n4n3)CC2)c1	1220
CCOc1ccc(CNS(=O)(=O)c2cc(C(=O)N3CCCC3)n(C)c2C)cc1	771
Cc1ccc2c(Nc3cc(F)cc(F)c3)c(C(=O)N3CCSCC3)cnc2n1	645
Cc1cc2c(cc1S(=O)(=O)N1CCCC1C(=O)Nc1ccc(C(C)C)cc1)OCC(=O)N2 (centres undefined)	902
O=C(NCc1ccccn1)c1ccc2ncnc(N3CCCCC3)c2c1	551
CCc1cc(=O)n(CC(=O)Nc2ccccc2F)c(-c2cccc(F)c2)n1	1170
Cc1c(C(=O)NCc2c(F)cccc2F)c(C(F)(F)F)nn1C(C)C	867
Fc1cccc2sc(NCc3ccccn3)nc12	594
COc1ccc(Cl)cc1NC(=O)N1CCC2(CC1)N=C(c1cccc(F)c1)C(=O)N2	882
COc1ccc(S(=O)(=O)N2CC(C(=O)NC3CCCCC3)Oc3cc(C)ccc32)cc1 (centres undefined)	1170
Cc1cccc(-n2c(=O)c3c(cc(C)n3C)n(CC(=O)Nc3c(C)cc(C)cc3C)c2=O)c1	914
CCN1C(=O)c2cc(C(=O)NCc3ccc(C)cc3)nn2CC1(C)C(=O)NC1CCCC1 (centres undefined)	766

SMILES	RP-LC retention time [s]
CC(C)Sc1ccc2nn(CC(=O)Nc3ccc(Br)cc3F)c(=O)n2n1	843
Cn1c(=O)n(CC(=O)O)c(=O)c2c1nc1n2CCCN1c1ccc(Cl)cc1	749
Cc1nc2nc(-c3ccccc3)nn2c(Sc2ccc(N)cc2)c1C	863
CC(C)CNC(=O)CCn1c(=O)c2ccccc2n2c(=O)n(Cc3ccccc3F)nc12	879
O=S(=O)(Nc1ccc(Cn2cncn2)cc1)c1cccc(F)c1	705
Cc1ccc(NC(=O)N2CCC(C(C)C(=O)Nc3ccccc3F)CC2)cc1 (centres undefined)	869
O=C(Nc1cccc(F)c1)N1CCN(Cc2nc3ccc(Cl)cc3o2)CC1	784
CN1CCN(CC(=O)N2CCNC(=O)C2CC(=O)Nc2cccc(C(F)(F)F)c2)CC1 (centres undefined)	602
O=C(CC1CCCC1)N1CC(c2nc(-c3ccccc3)no2)C2(CCOCC2)C1 (centres undefined)	923
Cn1nc(-c2ccc(NC(=O)c3cccc4ccccc34)cc2)ccc1=O	763
CN(C)c1ccc(CNC(=O)CCC(=O)N2CCCn3nc(-c4cccn4C)cc32)cc1	599
COc1cccc(C(=O)N2CCc3cc(-c4csc(C)n4)ccc32)c1	988
O=C(Nc1nc(-c2cc([N+](=O)[O-])cs2)cs1)C1=COCCO1	829
Cc1cc(C)c2c(N3CCSCC3)nc(C(=O)N3CCN(c4ccccc4)CC3)nc2n1	722
CC(C)(C)OC(=O)COC(=O)c1cn(-c2ccc(F)cc2)c(=O)c2ccccc12	1140
Cc1nc(-c2cn(C(C)C)c3ncccc23)sc1C(=O)NC1CCCC1	1000
Cc1ccc(CNS(=O)(=O)c2ccc3c(c2)C(=O)N(C)c2ncccc2O3)cc1	932
Cc1cc(N2CCN(S(=O)(=O)c3cc(F)ccc3C)CC2)nc(N2CCCCC2)n1	785
O=C(Nc1cnn(-c2ncc(N3CCSCC3)cn2)c1)C1CCOC1 (centres undefined)	640
CN(C(=O)Cn1nc(Cc2ccncc2)c2ccccc2c1=O)c1ccccc1Cl	627
O=C(Nc1ccccc1NC(=O)c1ccccc1C(F)(F)F)c1cccs1	835
O=C(Nc1ccc(-c2nc(-c3ccc(F)cc3)no2)cc1)c1ccc(Br)o1	1200
